Target: T1, GPR158 S266A mutant (Homo sapiens, UniProt Q5T848, S266A)
T1 construct: RGS7/Gβ5 co-expressed in the GAP BRET row only
T1 sequence (Q5T848 24-1215 S266A): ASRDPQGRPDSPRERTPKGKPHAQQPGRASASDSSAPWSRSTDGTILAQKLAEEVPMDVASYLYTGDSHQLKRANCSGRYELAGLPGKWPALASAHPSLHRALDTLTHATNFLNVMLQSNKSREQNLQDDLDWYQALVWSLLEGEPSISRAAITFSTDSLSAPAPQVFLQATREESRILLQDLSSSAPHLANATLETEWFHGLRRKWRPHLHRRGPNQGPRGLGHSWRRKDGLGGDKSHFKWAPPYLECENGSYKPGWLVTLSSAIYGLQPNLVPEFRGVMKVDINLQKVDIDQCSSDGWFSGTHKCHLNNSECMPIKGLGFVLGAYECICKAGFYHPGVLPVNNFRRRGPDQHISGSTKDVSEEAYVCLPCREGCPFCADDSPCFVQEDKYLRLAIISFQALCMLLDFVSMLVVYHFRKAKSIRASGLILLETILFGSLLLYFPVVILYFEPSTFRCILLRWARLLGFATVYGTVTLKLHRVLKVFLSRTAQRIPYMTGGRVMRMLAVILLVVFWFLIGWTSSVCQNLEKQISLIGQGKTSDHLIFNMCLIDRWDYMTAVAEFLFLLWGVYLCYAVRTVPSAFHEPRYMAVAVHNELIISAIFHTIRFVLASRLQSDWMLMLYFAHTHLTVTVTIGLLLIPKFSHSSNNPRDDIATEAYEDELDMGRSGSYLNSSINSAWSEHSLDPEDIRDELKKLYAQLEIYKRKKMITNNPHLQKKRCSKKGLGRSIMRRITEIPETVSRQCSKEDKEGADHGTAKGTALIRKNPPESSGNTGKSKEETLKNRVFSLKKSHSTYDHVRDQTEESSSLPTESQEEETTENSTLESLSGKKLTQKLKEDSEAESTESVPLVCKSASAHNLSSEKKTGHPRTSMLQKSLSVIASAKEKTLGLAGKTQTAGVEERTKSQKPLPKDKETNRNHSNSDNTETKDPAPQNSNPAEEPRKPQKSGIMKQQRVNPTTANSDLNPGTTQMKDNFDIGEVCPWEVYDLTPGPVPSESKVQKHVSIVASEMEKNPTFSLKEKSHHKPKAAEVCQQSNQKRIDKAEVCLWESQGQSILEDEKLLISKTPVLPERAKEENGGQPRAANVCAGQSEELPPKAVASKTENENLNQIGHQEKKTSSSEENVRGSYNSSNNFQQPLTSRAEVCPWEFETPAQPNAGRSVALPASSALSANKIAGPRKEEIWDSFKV
Assay: GAP BRET assay on GPR158 mutant S266A
Type: cell-based
From the text: FIGS. 11A-11G. Probing Cache domain of GPR158 as a ligand binding site A) Computational docking of glycine into putative ligand binding pocket on GPR158 Cache domain. Glycine and directly interacting residues are shown as sticks. Hydrogen bonds and van der Waals interactions are shown as dotted lines. B) Diagram showing interactions in the docked model of glycine against GPR158 Cache domain. Hydrogen bonds are shown as dashed lines, van der Waals interactions are shown as intersecting semicircles, and the secondary structural context of Ser266 and Tyr269 is shown as an arc. Dagger indicates a residue implicated in glycine binding in 11A. […] Error bars are mean±s.e.m. of 3 independent experiments in triplicate. *p<0.05, **p<0.01, ***p<0.001, ****p<0.0001, ns=p>0.05, two-way ANOVA Columns with no fill (Ctrl), columns with angled-line fill (Glycine) E) Quantification of glycine inhibitory effect on kGAP normalized to the effect seen with WT receptor. […]
Cellular measurements of BRET between Venus-Gβ1γ2 and masGRK3ct-Nluc were performed to examine GAP activity of RGS protein in living cells (described in detail in Masuho et al., 2015 (40)). […] The BRET signal was determined by calculating the ratio of the light emitted by the Venus-Gβ1γ2 (535 nm with a 30 nm band path width) over the light emitted by the masGRK3ct-Nluc (475 nm with a 30 nm band path width). […]

- regulation of mutant activity by glycine: unable to be regulated
SMILES: NCC(=O)O [glycine]

Source: patent US20260376293A1, “METHODS FOR STUDYING GPR158 PHARMACOLOGY AND IDENTIFICATION OF ITS LIGANDS” (UNIVERSITY OF FLORIDA RESEARCH FOUNDATION, INCORPORATED, priority 2022, published 2026)
